In patent US6562828B1, “Amidine compounds” (Japan Tobacco Inc., priority 1998, dated 2003):
pIC50: −log10 of the molar value. Counter-ions that a name gives are not always drawn.

Legend:
Human FXa = target: T1, Human FXa (Homo sapiens, UniProt P00742); assay: Determination of anti-factor Xa (FXa) activity, synthetic substrate S-2222; assay type: biochemical; conditions: S-2222, 37° C., pH 8.4, read-out: Experimental Example 1: anti-FXa activity, IC50
T1 construct: Human FXa [Enzyme research Laboratories (USA)] enzyme; purchased Enzyme Research Laboratories (USA)
Description: Determination of Anti-factor Xa (FXa) Activity
Human FXa [Enzyme research Laboratories (USA)] enzyme (40 μl, 0.16U/ml) and test compounds (40 l) adjusted to various concentrations were incubated in 0.1M Tris (Tris-hydroxymethyl-aminomethane) buffer (pH 8.4) containing 0.2M sodium chloride (herein to be referred to as 0.1 M tris-0.2M NaCl buffer) (40 μl) at 37° C. for 10 min. A synthetic substrate S-2222 (Daiichi Pure Chemical (Tokyo, Japan), 40 μl) adjusted to 0.8 mM was added and the mixture was incubated at 37° C. for 10 min. The reaction was stopped by addition of 60% acetic acid (40 μl) and absorbance at 405 nm was measured by Model 3550 (BIO-RAD). For the control, the solvent was used instead of the test compound.

Human FIIa = target: T2, Human FIIa (Homo sapiens, UniProt P00734); assay: Determination of anti-factor IIa (FIIa) activity, synthetic substrate S-2238; assay type: biochemical; conditions: S-2238, 37° C., pH 8.4, read-out: Experimental Example 2: anti-FIIa activity, IC50
T2 construct: purchased Sigma

T1 sequence (P00742 235-488 limits assumed): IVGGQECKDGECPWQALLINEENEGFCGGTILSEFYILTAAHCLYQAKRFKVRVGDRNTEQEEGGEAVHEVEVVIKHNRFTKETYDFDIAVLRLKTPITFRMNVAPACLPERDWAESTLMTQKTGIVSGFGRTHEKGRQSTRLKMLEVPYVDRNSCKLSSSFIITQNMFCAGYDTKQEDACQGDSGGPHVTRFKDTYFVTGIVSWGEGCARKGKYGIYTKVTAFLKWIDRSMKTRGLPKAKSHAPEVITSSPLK
T1 sequence (P00742 41-179 partner limits assumed): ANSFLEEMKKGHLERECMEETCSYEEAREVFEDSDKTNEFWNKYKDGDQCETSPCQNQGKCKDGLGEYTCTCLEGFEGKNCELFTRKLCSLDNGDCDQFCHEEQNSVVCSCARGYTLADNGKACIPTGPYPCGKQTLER

pIC50 (Human FXa) | pIC50 (Human FIIa) | Compound
7.22 | < 5.00 | N=C(N)N1CCc2ccc(OCC3CCN(c4ccncc4)CC3)cc2C1 [Example 1, 7-[1-(Pyridin-4-yl)piperidin-4-ylmethoxy]-1,2,3,4-tetrahydroisoquinoline-2-carboxamidine Dihydrochloride]
6.30 | < 5.00 | CCOC(=O)C1(COc2ccc3ccc(C(=N)N)cc3c2)CCN(c2ccncc2)CC1 [Example 40, 4-(2-Amidinonaphthalen-7-yloxymethyl)-1-(pyridin-4-yl)piperidine-4-carboxylic Acid Ethyl Ester Dihydrochloride]
7.40 | < 5.00 | N#CC1(CCOc2ccc3c(c2)CN(C(=N)N)CC3)CCN(c2ccncc2)CC1 [Example 37, 7-[2-[4-Cyano-1-(pyridin-4-yl)piperidin-4-yl]ethoxy]-1,2,3,4-tetrahydroisoquinoline-2-carboxamidine Dihydrochloride]
6.52 | < 5.00 | N=C(N)c1ccc2c(c1)nc(CN(C(=O)C(=O)O)C1CCN(c3ccncc3)CC1)n2CC(=O)NC1CCCCC1 [Example 61, N-[5-Amidino-1-(cyclohexylcarbamoylmethyl)benzimidazole-2-ylmethyl]-N-[l-(pyridin-4-yl)piperidin-4-yl]aminooxalic Acid Dihydrochloride]
6.15 | < 5.00 | N=C(N)N1CCc2ccc(OCC3CCN(CCO)CC3)cc2C1 [Example 21, 7-[1-(2-Hydroxyethyl)piperidin-4-ylmethoxy]-1,2,3,4-tetrahydroisoquinoline-2-carboxamidine Dihydrochloride]
6.30 | < 5.00 | CC(=N)N1CCC(Oc2ccc(OCc3nc4cc(C(=N)N)ccc4n3CC(=O)NC[C@H]3CC[C@H](C(=O)O)CC3)cc2)CC1 [Example 53, trans-4-[2-[4-(1-Acetimidoylpiperidin-4-yloxy)phenoxymethyl]-5-amidinobenzimidazol-1-ylacetylaminomethyl]cyclohexanecarboxylic Acid Dihydrochloride]
7.10 | – | N=C(N)c1ccc2c(c1)nc(CN(C(=O)c1ccc(C(=O)O)cc1)c1ccc(OC3CCN(C(=N)NCc4ccccc4)CC3)cc1)n2CC(=O)NC1CCCCC1 [Example 110, N-[5-Amidino-1-(cyclohexylcarbamoylmethyl)benzimidazol-2-ylmethyl]-N-[4-[1-[amino(benzylinino)methyl]piperidin-4-yloxy]phenyl]carbamoylbenzoic Acid Dihydrochloride]
6.15 | < 5.00 | CCOC(=O)C1(COc2ccc3c(c2)CN(C(=N)N)CC3)CCN(c2cc(C)nc(C)c2)CC1 [Example 10, 4-(2-Amidino-1,2,3,4-tetrahydroisoquinolin-7-yloxymethyl)-1-(2,6-dimethylpyridin-4-yl)piperidine-4-carboxylic Acid Ethyl Ester Dihydrochloride]
6.30 | < 5.00 | N=C(N)c1ccc2ccc(OCC3(C(=O)O)CCN(c4ccncc4)CC3)c(Cl)c2c1 [Example 39, 4-(2-Amidino-8-chloronaphthalen-7-yloxymethyl)-1-(pyridin-4-yl)piperidine-4-carboxylic Acid Dihydrochloride]
6.22 | < 5.00 | N/C(=N/O)N1CCc2ccc(OCC3CCN(c4ccncc4)CC3)cc2C1 [Example 4, 7-[1-(Pyridin-4-yl)piperidin-4-ylmethoxy]-1,2,3,4-tetrahydroisoquinoline-2-carboxamide Oxime Dihydrochloride]
6.30 | < 5.00 | CC(=N)N1CCC(COc2ccc3c(c2)CN(C(=N)N)CC3)CC1 [Example 29, 7-(1-Acetimidoylpiperidin-4-ylmethoxy)-1,2,3,4-tetrahydroisoquinoline-2-carboxamidine Dihydrochloride]
6.40 | < 5.00 | N=C(N)N1CCc2ccc(SCC3(C(=O)O)CCN(c4ccncc4)CC3)cc2C1 [Example 43, 4-(2-Amidino-1,2,3,4-tetrahydroisoquinolin-7-ylthiomethyl)-1-(pyridin-4-yl)piperidine-4-carboxylic Acid Dihydrochloride]
6.40 | < 5.00 | N=C(N)N1CCc2ccc(OCC3CCN(c4ccnc5ccccc45)CC3)cc2C1 [Example 2, 7-[1-(Quinolin-4-yl)piperidin-4-ylmethoxy]-1,2,3,4-tetrahydroisoquinoline-2-carboxamidine Dihydrochloride]
6.52 | < 5.00 | Cc1cc(N2CCC(COc3ccc4c(c3)CN(C(=N)N)CC4)(C(=O)O)CC2)cc(C)n1 [Example 11, 4-(2-Amidino-1,2,3,4-tetrahydroisoquinolin-7-yloxymethyl)-1-(2,6-dimethylpyridin-4-yl)piperidine-4-carboxylic Acid Dihydrochloride]
6.70 | < 5.00 | Cc1cc(N2CCC(COc3ccc4c(c3)CN(C(=N)N)CC4)(C(=O)O)CC2)ccn1 [Example 13, 4-(2-Amidino-1,2,3,4-tetrahydroisoquinolin-7-yloxymethyl)-1-(2-methylpyridin-4-yl)piperidine-4-carboxylic Acid Dihydrochloride]
6.70 | < 5.00 | N=C(N)N1CCc2ccc(OCCC3(C(=O)O)CCN(c4ccncc4)CC3)cc2C1 [Example 16, 4-[2-(2-Amidino-1,2,3,4-tetrahydroisoquinolin-7-yloxy)ethyl]-1-(pyridin-4-yl)piperidine-4-carboxylic Acid Dihydrochloride]
6.40 | < 5.00 | N=C(N)N1CCc2ccc(OCC3CCN(c4ccc(NC(=O)c5ccccc5)cn4)CC3)cc2C1 [Example 32, N-[2-[4-(2-Amidino-1,2,3,4-tetrahydroisoquinolin-7-yloxymethyl)-piperidin-1-yl]pyridin-5-yl]benzamide Dihydrochloride]
6.15 | < 5.00 | N=C(N)N1CCc2ccc(SCCC3(C(=O)O)CCN(c4ccncc4)CC3)cc2C1 [Example 44, 4-[2-(2-Amidino-1,2,3,4-tetrahydroisoquinolin-7-ylthio)ethyl]-1-(pyridin-4-yl)piperidine-4-carboxylic Acid Dihydrochloride]
7.00 | < 5.00 | CCOC(=O)CN(Cc1nc2cc(C(=N)N)ccc2n1CC(=O)NC1CCCCC1)c1ccc(OC2CCN(C(C)=N)CC2)cc1 [Example 62, 2-[N-[4-(1-Acetimidoylpiperidin-4-yloxy)phenyl]-N-ethoxycarbonyl-methylaminomethyl]-1-(cyclohexylcarbamoylmethyl)benzimidazole-5-carboxamidine Dihydrochloride]
6.10 | < 5.00 | N=C(N)N1CCc2ccc(OCC3CCN(Cc4ccncc4)CC3)cc2C1 [Example 22, 7-[1-(Pyridin-4-ylmethyl)piperidin-4-ylmethoxy-1,2,3,4-tetrahydroisoquinoline-2-carboxamidine Trihydrochloride]
7.00 | < 5.00 | N=C(N)N1CCc2ccc(OCC3(C(=O)O)CCN(c4ccncn4)CC3)cc2C1 [Example 14, 4-(2-Amidino-1,2,3,4-tetrahydroisoquinolin-7-yloxymethyl)-1-(pyrimidin-4-yl)piperidine-4-carboxylic Acid Dihydrochloride]
6.52 | < 5.00 | CCOC(=O)/C=C/c1cnccc1N1CCC(COc2ccc3c(c2)CN(C(=N)N)CC3)CC1 [Example 33, 3-[4-[4-(2-Amidino-1,2,3,4-tetrahydroisoquinolin-7-yloxymethyl)-piperidin-1-yl]pyridin-3-yl]-2-propenoic Acid Ethyl Ester Dihydrochloride]
7.10 | < 5.00 | CCOC(=O)C1(COc2ccc3c(c2)CN(C(=N)N)CC3)CCN(c2ccncc2)CC1 [Example 6, 4-(2-Amidino-1,2,3,4-tetrahydroisoquinolin-7-yloxymethyl)-1-(pyridin-4-yl)piperidine-4-carboxylic Acid Ethyl Ester Dihydrochloride]
6.70 | < 5.00 | N=C(N)N1CCc2ccc(OCC3CCN(c4ccncc4CCC(=O)O)CC3)cc2C1 [Example 89, 3-[4-[4-(2-Amidino-1,2,3,4-tetrahydroisoquinolin-7-yloxymethyl)piperidin-1-yl]pyridin-3-yl]propionic Acid Dihydrochloride]
6.70 | – | CCOC(=O)CCc1cnccc1N1CCC(COc2ccc3c(c2)CN(C(=N)N)CC3)CC1 [Example 88, 3-[4-[4-(2-Amidino-1,2,3,4-tetrahydroisoquinolin-7-yloxymethyl)piperidin-1-yl]pyridin-3-]propionic Acid Ethyl Ester Dihydrochloride]
6.22 | – | CCOC(=O)C1(COc2ccc3c(c2)CN(C(=N)N)CC3)CCN(c2ccnc(C)c2)CC1 [Example 12, 4-(2-Amidino-1,2,3,4-tetrahydroisoquinolin-7-yloxymethyl)-1-(2-methylpyridin-4-yl)piperidine-4-carboxylic Acid Ethyl Ester Dihydrochloride]
6.70 | – | CCOC(=O)C1(CCOc2ccc3c(c2)CN(C(=N)N)CC3)CCN(c2ccncc2)CC1 [Example 15, 4-[2-(2-Amidino-1,2,3,4-tetrahydroisoquinolin-7-yloxy)ethyl]-1-(pyridin-4-yl)piperidine-4-carboxylic Acid Ethyl Ester Dihydrochloride]
